ChEMBL document CHEMBL1140986, “Sidechain-linked inhibitors of HIV-1 protease dimerization” (Bioorg Med Chem, 2009)
In brackets after ≈: the same amount, converted by molar mass. Activity calls are given as the source filed them. The rule behind the calls is not given here. Non-standard residues stand in square brackets, D forms with d. Residues, ends and D or L forms follow the SMILES beside them. *: point of attachment. C16 diacid = O=C(O)CCCCCCCCCCCCCCC(=O)*; aThr = C[C@H](O)[C@H](N)C(=O)O

Assays:
[1] = Solubility in water; assay type: physicochemical
[2] = target: T1, Protease (Human immunodeficiency virus 1, UniProt Q9YQ12); experiment: Inhibition of HIV1 protease by continuous fluorometric assay
[3] = target: T1, Protease; experiment: Inhibition of HIV1 protease dimerization by Zhang-Poorman kinetic assay
[4] = target: Protease (Human immunodeficiency virus 1) (UniProt Q9YQ12); experiment: Inhibition of HIV1 protease at 130 uM by competitive Lineweaver-Burke plot
[5] = target: Protease (Human immunodeficiency virus 1) (UniProt Q9YQ12); experiment: Inhibition of HIV1 protease dimerization at 65.3 uM by Zhang-Poorman kinetic assay
[6] = target: T1, Protease; experiment: Inhibition of HIV1 protease by competitive inhibition assay
[7] = target: Protease (Human immunodeficiency virus 1) (UniProt Q9YQ12); experiment: Binding affinity to HIV1 protease allosteric site at 10 to 50 uM after 1 hr by fluorescence-based cross competition kinetic assay in presence of acetyl-pepstatin
[8] = target: Protease (Human immunodeficiency virus 1) (UniProt Q9YQ12); experiment: Binding affinity to HIV1 protease active site at 10 to 50 uM after 1 hr by fluorescence-based cross competition kinetic assay in presence of acetyl-pepstatin

Compound	IC50 [2] [µM]	Ki [3] [µM]	further results
CC(C)C[C@H](NC(=O)[C@@H](NC(=O)CCCCCCCCCCCCCCC(=O)N[C@@H](CC(N)=O)C(=O)N[C@@H](Cc1ccccc1)C(=O)O)[C@@H](C)O)C(=O)N[C@@H](Cc1ccccc1)C(N)=O ({Phe-Asn-C16 diacid}-Thr-Leu-Phe-NH2)			solubility [1]: 1 µM (≈ 0.908 µg/mL)
CC(C)C[C@H](NC(=O)[C@H](CSCCOCCOCCSC[C@H](NC(=O)Cc1ccccc1)C(=O)N[C@@H](Cc1ccccc1)C(=O)O)NC(=O)Cc1ccccc1)C(=O)N[C@@H](Cc1ccccc1)C(N)=O	2.5		
CCCCCCC(=O)N[C@@H](CSCCOCCOCCSC[C@H](NC(=O)CCCCCC)C(=O)N[C@H](C(=O)N[C@@H](Cc1ccccc1)C(N)=O)[C@H](C)CC)C(=O)N[C@@H](Cc1ccccc1)C(=O)O	1.2	510	
CC(C)C[C@H](NC(=O)[C@H](CSCCOCCOCCSC[C@H](NC(=O)COc1ccccc1)C(=O)N[C@@H](Cc1ccccc1)C(=O)O)NC(=O)COc1ccccc1)C(=O)N[C@@H](Cc1ccccc1)C(N)=O	2.9	1.25	
CC(C)C[C@H](NC(=O)[C@@H](NC(=O)CCCCCCCCCCCCCCC(=O)N[C@@H](CC(N)=O)C(=O)N[C@@H](Cc1ccccc1)C(=O)O)[C@H](C)O)C(=O)N[C@@H](Cc1ccccc1)C(N)=O ({Phe-Asn-C16 diacid}-[aThr]-Leu-Phe-NH2)		3	
CCC(=O)N[C@@H](CSCCOCCOCCSC[C@H](NC(=O)CC)C(=O)N[C@@H](CC(C)C)C(=O)N[C@@H](Cc1ccccc1)C(N)=O)C(=O)N[C@@H](Cc1ccccc1)C(=O)O	130		Activity [4]: Active; Activity [5]: inactive; Ki [6]: 16.9 µM; Activity [7]: Active; Activity [8]: inactive
CC(C)C[C@H](NC(=O)[C@H](CSCCOCCOCCSC[C@H](NC(=O)CCc1ccccc1)C(=O)N[C@@H](Cc1ccccc1)C(=O)O)NC(=O)CCc1ccccc1)C(=O)N[C@@H](Cc1ccccc1)C(N)=O	6.5		

More lines, main results first:

IC50 [2] [µM]	Ki [3] [µM]	Compound	further results
19.5		CC(C)C[C@H](NC(=O)[C@H](CSCCOCCOCCSC[C@H](NC(=O)C1CCCCC1)C(=O)N[C@@H](Cc1ccccc1)C(=O)O)NC(=O)C1CCCCC1)C(=O)N[C@@H](Cc1ccccc1)C(N)=O	
64	40.1	CC[C@@H](C)[C@H](NC(=O)[C@H](CSCCOCCOCCSC[C@H](NC(=O)CCCCC1CCCCC1)C(=O)N[C@@H](Cc1ccccc1)C(=O)O)NC(=O)CCCCC1CCCCC1)C(=O)N[C@@H](Cc1ccccc1)C(N)=O	
87	8.3	CCCC(=O)N[C@@H](CSCCOCCOCCSC[C@H](NC(=O)CCC)C(=O)N[C@@H](CC(C)C)C(=O)N[C@@H](Cc1ccccc1)C(N)=O)C(=O)N[C@@H](Cc1ccccc1)C(=O)O	
50	6.8	CCCCC(=O)N[C@@H](CSCCOCCOCCSC[C@H](NC(=O)CCCC)C(=O)N[C@@H](CC(C)C)C(=O)N[C@@H](Cc1ccccc1)C(N)=O)C(=O)N[C@@H](Cc1ccccc1)C(=O)O	
2.5		CC(C)C[C@H](NC(=O)[C@H](CSCCOCCOCCSC[C@H](NC(=O)CCC1CCCCC1)C(=O)N[C@@H](Cc1ccccc1)C(=O)O)NC(=O)CCC1CCCCC1)C(=O)N[C@@H](Cc1ccccc1)C(N)=O	
14.9	2.3	CCCCCC(=O)N[C@@H](CSCCOCCOCCSC[C@H](NC(=O)CCCCC)C(=O)N[C@@H](CC(C)C)C(=O)N[C@@H](Cc1ccccc1)C(N)=O)C(=O)N[C@@H](Cc1ccccc1)C(=O)O	solubility [1]: 90 µM (≈ 86.3 µg/mL)
675	88	CC(C)C[C@H](NC(=O)[C@H](CSCCOCCOCCSC[C@H](NC(=O)CCCCC1CCCCC1)C(=O)N[C@@H](Cc1ccccc1)C(=O)O)NC(=O)CCCCC1CCCCC1)C(=O)N[C@@H](Cc1ccccc1)C(N)=O	
9.5		CC(C)C[C@H](NC(=O)[C@H](CSCCOCCOCCSC[C@H](NC(=O)CC1CCCCC1)C(=O)N[C@@H](Cc1ccccc1)C(=O)O)NC(=O)CC1CCCCC1)C(=O)N[C@@H](Cc1ccccc1)C(N)=O	
4	1.3	CCCCCCC(=O)N[C@@H](CSCCOCCOCCSC[C@H](NC(=O)CCCCCC)C(=O)N[C@@H](CC(C)C)C(=O)N[C@@H](Cc1ccccc1)C(N)=O)C(=O)N[C@@H](Cc1ccccc1)C(=O)O	solubility [1]: 80 µM (≈ 79 µg/mL)
